Melting point data for 59 compounds are collected here from a melting point compilation (Tetko et al.).

A word on the melting point: it is the temperature, or range, at which the solid turns liquid. `Cc1c(Nc2c(C#N)cnc3sc(C4=CCN(C)CC4)cc23)ccc2[nH]ccc12`: the melting point was 230 °C. The result for `CC(C)(C)OC(=O)N(CNCCNC(=O)CCOCC(COCCC(=O)NCCNCN(C(=O)OC(C)(C)C)C(=O)OC(C)(C)C)(COCCC(=O)NCCNCN(C(=O)OC(C)(C)C)C(=O)OC(C)(C)C)NC(=O)OCc1ccccc1)C(=O)OC(C)(C)C` reads 86 to 88 °C; that for `CC(C)=CCCC(C)=CCCC(C)=CCCC(C)=CCCC(C)=CCCC(C)=CCCC(C)=CCCC(C)=CCCC(C)=CCCC(C)=CCNCC12CCCN1CCC2`, 59 to 61 °C; that for `CC(C)C(NS(=O)(=O)N(C)Cc1ccccn1)C(=O)NC(Cc1ccccc1)C(O)C(O)C(Cc1ccccc1)NC(=O)C(NS(=O)(=O)N(C)Cc1ccccn1)C(C)C` (centres undefined), 85 to 89 °C. The result for `CC(CCC(=O)O)C1CCC2C3C(O)CC4CC(NC(=O)CNC(=O)CN(CCN(CC(=O)O)CC(=O)O)CCN(CC(=O)O)CC(=O)O)CCC4(C)C3CC(O)C12C` (centres undefined) reads 120 to 125 °C; that for `NS(=O)(=O)c1cccc(-c2noc(-c3cnn4ccc(-c5ccc(C(F)(F)F)cc5)nc34)n2)c1`, 270 °C. The result for `O=S(=O)(CCCCCOc1ccc(C2=C(c3ccc(OC4CCCCO4)cc3)CCCc3cc(OC4CCCCO4)ccc32)cc1)CCCC(F)(F)C(F)(F)F` (centres undefined) reads 108 to 110 °C; that for `CC(C)CCCC(C)C1CCC2C3CC=C4CC(NCCCCC(=O)NCCC(=O)NCCC(=O)NCCCCC(C(=O)O)N(CC(=O)O)CC(=O)O)CCC4(C)C3CCC12C` (centres undefined), 101 to 103 °C; that for `CCOC(=O)Cc1ccc(-c2nc(COc3ccc(COc4nn(-c5ccccc5)cc4/C=C/c4nc(N5CCN(C(=O)OC(C)(C)C)CC5)sc4C)cc3OC)c(C)o2)cc1`, 112 to 114 °C. As for `CC(=O)OC1C(=O)C2(C)C(O)CC3OCC3(OC(C)=O)C2C(OC(=O)c2ccccc2)C2(O)CC(OC(=O)C(OC(=O)CCC(=O)O)C(NC(=O)c3ccccc3)c3ccccc3)C(C)=C1C2(C)C` (centres undefined), the melting point is 178 to 180 °C. The result for `CC(C)Cn1c(C(O)c2ccc(Cl)cc2)nc2c(N)nc3ccccc3c21` (centres undefined) reads 140 to 145 °C. The result for `COc1cc(OC)c(/C=C/C(c2ccc(OC)c(NC(=O)C(F)(F)F)c2)S(=O)(=O)C(/C=C/c2c(OC)cc(OC)cc2OC)c2ccc(OC)c(NC(=O)C(F)(F)F)c2)c(OC)c1` (centres undefined) reads 179 to 180 °C; that for `CC(COC(=O)CCSCCSCCC(=O)OCC(C)(Cc1cc(C(C)(C)C)c(O)c(C(C)(C)C)c1)Cc1cc(C(C)(C)C)c(O)c(C(C)(C)C)c1)(Cc1cc(C(C)(C)C)c(O)c(C(C)(C)C)c1)Cc1cc(C(C)(C)C)c(O)c(C(C)(C)C)c1`, 156 to 161 °C; that for `CC(=O)C1CCC2C3CCC4CC(O)(C#Cc5cccnc5)CCC4(C)C3CCC12C` (centres undefined), 230 to 235 °C. The result for `C=CCOC1OC(CO)C(O)C(OC(=O)CC(CCCCCCCCCCC)OC(=O)CCCCCCCCCCCCC)C1NC(=O)OCC(Cl)(Cl)Cl` (centres undefined) reads 68 to 70 °C; that for `CCc1cn(C2OC(CNC(=O)C(C)Oc3cc(OC)c(Br)cc3Br)C(OC(=O)C(NC(=O)OC(C)(C)C)C(C)C)C2F)c(=O)[nH]c1=O` (centres undefined), 101 to 111 °C. On to `CNC(=O)[C@@H](NC(=O)[C@@H](NC(=O)c1c(I)c(NC(C)=O)c(I)c(C(=O)O)c1I)C(C)C)C(C)C`, for which the melting point lay within 247 to 248 °C. The result for `CC1(C)CC(OC(=O)CCCCCCCCC(=O)OC2CC(C)(C)N(OC3CCCCCCCCCCC3)C(C)(C)C2)CC(C)(C)N1OC1CCCCCCCCCCC1` reads 70 to 78 °C; that for `O=S(=O)(OCC(I)C(F)(F)C(F)(F)C(F)(F)C(F)(F)F)OCC(I)C(F)(F)C(F)(F)C(F)(F)C(F)(F)F` (centres undefined), 45 to 48 °C.

As to `O=C(Nc1ccc(N2CCNCC2)cc1)c1ccccc1-c1ccccc1`, the melting point came out at 176 °C. The result for `Cc1cc(CNC(=O)c2nc(N3CCOCC3)n(C)c(=O)c2O)ccc1F` reads 182 to 185 °C.

`CCCCc1nn(-c2cc(NC(=O)c3ccccc3)ccc2C(F)(F)F)c(=O)n1Cc1ccc(-c2ccccc2S(=O)(=O)NC(=O)c2ccccc2Cl)cc1F` had a melting point of 210 to 212 °C. The result for `CC(C)(C1CCC(OCC(CN2C(C)(C)CC3(CC2(C)C)OCCO3)OC(=O)c2ccccc2)CC1)C1CCC(OCC(CN2C(C)(C)CC3(CC2(C)C)OCCO3)OC(=O)c2ccccc2)CC1` (centres undefined) reads 77 to 79 °C; that for `CC(C)(C)c1cc(-c2cc(C(C)(C)C)cc(C(C)(C)C)c2OCP(=O)(c2ccccc2)c2ccccc2)c(OCP(=O)(c2ccccc2)c2ccccc2)c(C(C)(C)C)c1`, 211 to 212 °C.

In turn, `COc1ccc(Br)cc1S(=O)(=O)Nc1onc(C)c1Br` yielded a melting point of 192 to 195 °C. The result for `[C-]#[N+]CCCS(=O)(=O)c1ccc(C)cc1` reads 37 to 38 °C; that for `Nc1cccc(CN2C(=O)C3(COc4cc5c(cc43)OCCO5)c3ccccc32)n1` (centres undefined), 240 to 241 °C; that for `CCCCCCCCCCCCCCCCCCN(CCCCCCCCCCCCCCCCCC)C(=O)c1cc(NS(=O)(=O)c2ccc(S(=O)(=O)CCC#N)cc2)c2ccccc2c1O`, 85 to 86 °C. On to `O=P(O)(C(F)(F)C(F)(F)C(F)(F)C(F)(F)C(F)(F)C(F)(F)C(F)(C(F)(F)F)C(F)(F)F)C(F)(F)C(F)(F)C(F)(F)C(F)(F)C(F)(F)C(F)(F)C(F)(C(F)(F)F)C(F)(F)F`, for which the melting point is 170 to 172 °C.

`Cc1ccc2c(c1)CC(=O)N2c1c(F)cc(F)cc1Cl` gave a melting point of 137 to 140 °C. In the case of `O=C(Nc1ccc(Cl)cc1)NC1CCN(S(=O)(=O)c2ccc(C(=O)O)cc2)CC1`, the melting point is 266 to 270 °C. In turn, `COc1cc(NC(=O)N2CCCC2)c(S(C)(=N)=O)cc1OC` (centres undefined) had a melting point of 312 to 314 °C. The result for `COc1ccc(N2C(=O)C3Cc4[nH]cnc4CN3C2=O)cc1` (centres undefined) reads 142 to 148 °C; that for `CCC1(CC)c2cc(-c3nc4ccccc4s3)ccc2-c2ccc(N(c3ccc4c(c3)C(CC)(CC)c3cc(-c5nc6ccccc6s5)ccc3-4)C3CCCCC3)cc21`, 262 to 264 °C. The result for `COc1cc(C(=O)c2c(C)c(C(=O)OCc3ccccc3)c3cc(N(C)C)ccn23)ccc1[N+](=O)[O-]` reads 167 °C. `COc1ccc(C(O)CNCc2ccccc2[N+](=O)[O-])cc1OC` (centres undefined) gave a melting point of 120 to 121 °C. As for `FC(F)(F)C(F)(F)C(F)(F)C(F)(F)C(F)(F)C(F)(F)C(F)(F)C(F)(F)C(F)(F)C(F)(F)CC[Si](Br)(CCC(F)(F)C(F)(F)C(F)(F)C(F)(F)C(F)(F)C(F)(F)C(F)(F)C(F)(F)C(F)(F)C(F)(F)F)CCC(F)(F)C(F)(F)C(F)(F)C(F)(F)C(F)(F)C(F)(F)C(F)(F)C(F)(F)C(F)(F)C(F)(F)F`, the melting point was in the range of 80 to 81 °C.

The compound `CC1(C)CC(O)(C#N)CC(C)(C)N1` showed a melting point of 129 to 132 °C. The result for `CCC(C=CC(C)C1CCC2C3CC=C4CC(OC(=O)N(CC(O)COC(c5ccccc5)(c5ccccc5)c5ccccc5)C(C)C)CCC4(C)C3CCC12C)C(C)C` (centres undefined) reads 75 to 76 °C. The result for `CC(=O)ON=C(N)c1ccc(CN(CCCCNC(=O)OC(C)(C)C)C(=O)CNC(=O)CN(CCc2ccccc2)S(=O)(=O)c2ccc(Cl)c(C)c2Cl)cc1` reads 100 °C; that for `[C-]#[N+]CC(=O)N(c1ccccc1)C(C)C`, 80 to 82 °C.

Regarding `NC(=O)c1cc(-c2ccccc2)c(=O)n2c1-c1sccc1CC2`, the melting point was 281 to 282 °C. The result for `C=CCOC(=O)NC(=O)C(c1ccccc1)c1ccccc1` reads 118 to 120 °C; that for `CC(C)[C@H](NC(=O)N(C)Cc1csc(NC(=O)OC(C)(C)C)n1)C(=O)N[C@@H](Cc1ccccc1)C[C@H](O)[C@H](Cc1ccccc1)NC(=O)[C@@H](NC(=O)N(C)Cc1csc(NC(=O)OC(C)(C)C)n1)C(C)C`, 115 to 120 °C. The result for `O=C(NCC(O)CO)c1c(I)c(C(=O)NCC(O)CO)c(I)c(N2C(=O)COCC2CO)c1I` (centres undefined) reads 227 to 230 °C; that for `CCOC(=O)C(C)OC1C(Cl)=C(OC2=C(Cl)C(OC(C)C(=O)OCC)C(c3ccccc3C(F)(F)F)([N+](=O)[O-])C=C2)C=CC1(c1ccccc1C(F)(F)F)[N+](=O)[O-]` (centres undefined), 71 to 74 °C; that for `CC(C)C(OC(C(I)=C(I)I)C(C)C)C(I)=C(I)I` (centres undefined), 43.5 to 44 °C.

For the compound `Ic1cc(I)c(OCCOc2c(I)cc(I)cc2I)c(I)c1`, the melting point lay within 288 to 289 °C. The result for `CCCCCCCCCCCCCCCc1cccc(Oc2ccccc2SSc2ccccc2Oc2cccc(CCCCCCCCCCCCCCC)c2)c1` reads 89 to 90 °C; that for `COc1cc(OC)c(C=CC(c2ccc(OC)c(NC(=O)CCl)c2)S(=O)(=O)C(C=Cc2c(OC)cc(OC)cc2OC)c2ccc(OC)c(NC(=O)CCl)c2)c(OC)c1` (centres undefined), 163 to 165 °C. The compound `CCCCCCCCCCCCCCCCCCCCCCCCCCCCCCCCCCCCCCCCCCCC` yielded a melting point of 87.5 to 88 °C. The compound `CO/N=C(\C(=O)N[C@@H]1C(=O)N2C(C(=O)OC(C)(C)C)=C(CI)SC[C@H]12)c1nc(C(c2ccccc2)(c2ccccc2)c2ccccc2)sc1N` returned a melting point of 150 °C. As to `FC(F)(F)C(F)(F)C(F)(F)C(F)(F)C(F)(F)C(F)(F)CCc1ccc(P(c2ccc(CCC(F)(F)C(F)(F)C(F)(F)C(F)(F)C(F)(F)C(F)(F)F)cc2)c2ccc(CCC(F)(F)C(F)(F)C(F)(F)C(F)(F)C(F)(F)C(F)(F)F)cc2)cc1`, the melting point fell in the range of 49.9 to 52.4 °C. The result for `O=P(O)(O)CN(CP(=O)(O)O)CP(=O)(O)O` reads 215 °C. The result for `CN1CCCC1=NC(=O)Nc1ccc(OCc2ccccc2)cc1` reads 140 to 142 °C. The result for `N=C(NC(=O)OCc1ccccc1)N(CCCC(NC(=O)C(Cc1ccccc1)NC(=O)c1ccccc1)C(=O)Oc1cccc2ccccc12)C(=O)OCc1ccccc1` (centres undefined) reads 177 to 185 °C; that for `CC(C)(C)c1cc2c(c(C(C)(C)C)c1)OP(OP1Oc3c(cc(C(C)(C)C)cc3C(C)(C)C)Cc3cc(C(C)(C)C)cc(C(C)(C)C)c3O1)Oc1c(cc(C(C)(C)C)cc1C(C)(C)C)C2`, 249 to 252 °C; that for `CCC1(O)CC(OC2CC(N(C)C)C(OC3CC(O)C(OC4CCC(=O)C(C)O4)C(C)O3)C(C)O2)c2c(cc3c(c2O)C(=O)c2c(O)cccc2C3=O)C1C(=O)OC` (centres undefined), 148 °C. `O=C(c1ccc(I)cc1)c1cc2c3c(c1)C(c1cccc(Cl)c1)CC(=O)N3CC2` (centres undefined) registered a melting point of 275 °C.
